Here are results for twelve compounds from PubChem BioAssay AID1845212 (Molecular Pharmacology Branch, DTP, NCI, 2023).

Each structure is given as a SMILES string. “And” between values parts separate entries of the source, which are not always exact repeats. Equal values may be shown once. The source made the active and inactive calls. Rule for the calls: active = viability on the fitted dose curve at most 10% of control; inactive = the rest. A value given as a limit tells only on which side of the number the result lay.

The assay deals with NCI-H719 tumor spheroids, viability. Put plainly: Anticancer human tumor NCI-H719 cell line growth inhibition.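 For IC50: spheroids exposed to compounds for seven days.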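 For viability, T/C: spheroids exposed to compounds for seven days; percent viability relative to DMSO vehicle control as 100%.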 The settings on record: spheroids with HUVEC and MSC; for viability, T/C: stronger effect = lower value. The source says:
Multicellular complex tumor spheroid response to DNA repair inhibitors in combination with DNA-damaging drugs
This study explores the anticancer activities of DNA-damaging drugs and inhibitors of DNA damage repair, both as single agents and in combinations. Complex tumor spheroids comprised of malignant cells, endothelial cells and mesenchymal stem cells served as an in vitro model for human solid tumors. This model system incorporates physiologically relevant features and patient-derived or established malignant cell lines with clinically relevant genetic alterations from many tumor types. Twenty-six patient-derived or established malignant cell lines were evaluated representing sarcoma, melanoma, small cell lung cancer (SCLC), non-small cell lung cancer (NSCLC), as well as bladder, ovarian and pancreatic cancers. The concentration ranges selected for each drug and investigational agent were based upon clinically achievable concentrations if the clinical Cmax of the agent was known.
Compounds. The drugs and compounds olaparib (NSC753686), talazoparib (NSC767125), berzosertib (NSC777718), elimusertib (NSC800525), nedisertib (NSC802822), VX-984 (NSC792969), AZD-1390 (NSC803789), temozolomide (NSC362856), topotecan (NSC609699), trabectedin (NSC813783), staurosporine (NSC755774), and gemcitabine (NSC613327) were obtained from the National Cancer Institute (NCI) Developmental Therapeutics Program Chemical Repository. The FDA-approved anticancer drug set is available from the Developmental Therapeutics Program at https://dtp.cancer.gov/organization/dscb/obtaining/available_plates.htm. […] The stock solutions were prepared in dimethyl sulfoxide (DMSO, Sigma-Aldrich, St. Louis, MO, cat. D2650) at 400-fold the tested concentration and stored at -70 degrees C. Prior to their use, the stock solutions were diluted in fresh medium and the final DMSO concentration in the assay was 0.25% (v/v). All drugs and investigational agents were tested over a range starting from a high concentration at or near the clinical Cmax and decreasing in half-log increments. If the clinical Cmax for an agent had not been determined, the highest concentration tested was 10 microM.
Cell Lines. The patient-derived cancer cell (PDC) lines: 156681-154-R-J1-PDC, 283228-195-R-J1-PDC, 287954-098-R-J1-PDC, 292921-168-R-J2-PDC, 349418-098-R-PDC, 425362-245-T-J1-PDC, 556581-035-R-J1-PDC, and BL0293-F563-PDC were received from the NCI Patient-Derived Models Repository (PDMR, https://pdmr.cancer.gov). The established cell lines HS-SY-2 (RRID:CVCL_8719), MPNST, and SYO-1 (RRID:CVCL_7146) were obtained from the Sloan Kettering Institute. The alveolar soft parts sarcoma cell line ASPS-1 (RRID:CVCL_S738) was established at the NCI and grown from internal seed stocks. The following established cell lines were purchased from the American Type Culture Collection (ATCC, Manassas, VA): G-401 (ATCC, cat. CRL-1441, RRID:CVCL_0270), SW982 (ATCC, cat. HTB-93, RRID:CVCL_1734), VA-ES-BJ (ATCC, cat. CRL-2138, RRID:CVCL_1785), NCI-H719 (ATCC, cat. CRL-5837, RRID:CVCL_1582), NCI-H196 (ATCC, cat. CRL-5823, RRID:CVCL_1509), NCI-H841 (ATCC, cat. CRL-5845, RRID:CVCL_1595), NCI-H1618 (ATCC, cat. CRL-5879, RRID:CVCL_1480), NCI-H1876 (ATCC, cat. CRL-5902, RRID:CVCL_1503), DMS 114 (ATCC, cat. CRL-2066; RRID:CVCL_1174), NCI-H211 (ATCC, cat. CRL-5824; RRID:CVCL_1529), and SW 1271 (ATCC, cat. CRL-2177, RRID:CVCL_1716). The small cell lung cancer cell line COR-L88 was purchased from Sigma-Aldrich (cat. 92031917-1VL, RRID:CVCL_1141). The non-small cell lung cancer cell lines NCI-H226 (RRID:CVCL_1544) and NCI-H322M (RRID:CVCL_1557) were established at the NCI and grown from internal seed stocks. Pooled donor human umbilical vein endothelial cells (HUVEC, Lonza, cat. CC-2519) and human mesenchymal stem cells (hMSC, Lonza, cat. PT-2501) were purchased from Lonza (Walkersville, MD).
Cell Culture. All cells were maintained in an incubator at 37 degrees C and 5% CO2 with 95% humidity. […]

Where [1] appears, read: compound alone, run of 12/16/2019.

For the compound `CC(C)n1c(=O)n(C)c2cnc3cc(F)c(-c4ccc(OCCCN5CCCCC5)nc4)cc3c21`, the viability, T/C (in general, the result in the treated group divided by that in the control group, in per cent) was 82.1% and 106% and 81.7% (compound 0.0316 µM); 93.8% and 98.1% and 94.4% (compound 0.1 µM); 116% and 107% and 117% (compound 0.316 µM); 81.4% and 94.8% and 103% (compound 1 µM); 85.7% and 142% and 110% (compound 3.16 µM); 108% and 104% and 123% (compound 10 µM). Besides, the IC50 (in general, the concentration that gives 50% inhibition) (curve of compound) was over 10000 nM.

In the case of `CC1COCCN1c1cc(-c2ccnn2C)c2ccnc(-c3ccn[nH]3)c2n1` (stereo unspecified), the viability, T/C is 59.9% and 73.9% and 62.1% (compound 0.0316 µM); 60.1% and 43.6% and 50.1% (compound 0.1 µM); 23.8% and 26.8% and 29.1% (compound 0.316 µM); 11.2% and 14.3% and 10.5% (compound 1 µM); 11.6% and 8.2% and 8.17% (compound 3.16 µM); 13.3% and 9.71% and 10.8% (compound 10 µM). For the same compound, the IC50 (curve of compound) is 137 nM and 80.4 nM and 106 nM.

For the compound `CC[C@@]1(O)C(=O)OCc2c1cc1n(c2=O)Cc2cc3c(CN(C)C)c(O)ccc3nc2-1`, the viability, T/C runs as follows: (compound 0.003 µM) 44.5% [middle of 10 runs]; (compound 0.00949 µM) 6.14% [middle of 10 runs]; (compound 0.03 µM) 5.56% [middle of 10 runs]; (compound 0.0949 µM) 6.96% [middle of 10 runs]; (compound 0.3 µM) 7.47% [middle of 10 runs]. Besides, the 50% inhibitory concentration (IC50) runs as follows: (compound alone, run of 11/07/2019) < 3 nM and 3.17 nM; under setting [1], 3.67 nM and 3.31 nM and < 3 nM.

Consider `CNCc1ccc(-c2cc(-c3nc(-c4ccc(S(=O)(=O)C(C)C)cc4)cnc3N)on2)cc1`, for which the viability, T/C is, setting by setting: (compound 0.00949 µM) 96.3% and 108% and 109%; (compound 0.03 µM) 103% (2×) and 107%; (compound 0.0949 µM) 57.4% and 81.5% and 93.3%; (compound 0.3 µM) 41.9% and 37.8% and 43.2%; (compound 0.949 µM) 9.72% and 6.55% and 13.6%. The IC50 (curve of compound) is 158 nM and 216 nM and 264 nM.

Take `COc1cc(C)[nH]c(=O)c1CN1CCc2c(Cl)cc(C(OC)C3COC3)c(Cl)c2C1=O` (stereo unspecified): the viability, T/C was 100% and 103% and 101% (compound 0.0316 µM); 102% and 75.5% and 111% (compound 0.1 µM); 108% (compound 0.316 µM); 109% and 114% (2×) (compound 1 µM); 102% and 113% and 106% (compound 3.16 µM); 114% and 125% and 109% (compound 10 µM). Further, the IC50 (curve of compound) was over 10000 nM.

As to `COc1cc2c(cc1O)CCNC21CSC2c3c(OC(C)=O)c(C)c4c(c3C(COC1=O)N1C(O)C3Cc5cc(C)c(OC)c(O)c5C(C21)N3C)OCO4` (stereo unspecified), the viability, T/C is 36.8% [middle of 10 runs] (compound 94.9 pM), 8.36% [middle of 10 runs] (compound 0.0003 µM), 7.96% [middle of 10 runs] (compound 0.000949 µM) and 0.83% [middle of 9 runs] (compound 0.003 µM). Under setting [1], the IC50 was 0.0663 nM [middle of 10 runs].

As for `COc1ccc([C@@H](O)c2cc(-c3ncnc4cc(N5CCOCC5)ccc34)c(F)cc2Cl)nn1`, the viability, T/C is 103% and 90.6% and 75% (compound 0.0316 µM); 109% and 83.6% and 83.3% (compound 0.1 µM); 79.3% and 76.5% and 84.2% (compound 0.316 µM); 65.6% and 58.1% and 69% (compound 1 µM); 47.3% and 57.3% and 87.8% (compound 3.16 µM); 15.5% and 53.7% and 58.8% (compound 10 µM). In addition, for the setting “curve of compound”, the IC50 was 2360 nM and > 10000 nM.

For `Cc1cc(C)c(CNC(=O)c2cc(-c3ccc(CN4CCOCC4)cc3)cc3c2cnn3C2CCCC2)c(=O)[nH]1`, the viability, T/C is 80.8% and 102% and 115% (compound 0.0316 µM); 83.4% and 99.2% and 117% (compound 0.1 µM); 84.8% and 97.1% and 111% (compound 0.316 µM); 79.3% and 108% and 121% (compound 1 µM); 114% and 92.6% and 103% (compound 3.16 µM); 77.5% and 87.8% and 72.1% (compound 10 µM). Besides, the IC50 (curve of compound) was over 10000 nM.

Consider `Cc1sc2c(c1C)C(c1ccc(Cl)cc1)=NC(CC(=O)Nc1ccc(O)cc1)c1nnc(C)n1-2` (stereo unspecified), for which the viability, T/C (compound 0.00949 µM) is 95.3% and 98.3% and 94.6%; the viability, T/C (compound 0.03 µM) was 95.8% and 95.1% and 102%; the viability, T/C (compound 0.0949 µM) was 47.7% and 63.8% and 60.6%; the viability, T/C (compound 0.3 µM) was 22.9% and 31% and 24.5%; the viability, T/C (compound 0.949 µM) was 4.99% and 4.88% and 4.46%; the viability, T/C (compound 3 µM) was 3.39% and 2.12% and 2.52%. The IC50 (curve of compound) was 104 nM and 156 nM and 140 nM.

As to `Cn1ncnc1[C@H]1c2n[nH]c(=O)c3cc(F)cc(c23)N[C@@H]1c1ccc(F)cc1`, the viability, T/C (compound 0.00949 µM) was 14.8% and 59.6% and 24.1%; the viability, T/C (compound 0.03 µM) was 8.09% and 8.06% and 12.8%; the viability, T/C (compound 0.0949 µM) is 6.33% and 7.52% and 10%; the viability, T/C (compound 0.3 µM) was 6.84% and 6.92% and 9.12%; the viability, T/C (compound 0.949 µM) was 5.82% and 8.51% and 7.74%; the viability, T/C (compound 3 µM) was 6.37% and 7.94% and 7.04%. In addition, the concentration for half-maximal inhibition (IC50) (curve of compound) is < 9.49 nM and 11.8 nM.

For the compound `O=C(c1cc(Cc2n[nH]c(=O)c3ccccc23)ccc1F)N1CCN(C(=O)C2CC2)CC1`, the viability, T/C reads like this: (compound 0.0949 µM) 90.1% and 105% and 85.6%; (compound 0.3 µM) 61.4% and 93.6% and 95.1%; (compound 0.949 µM) 71.1% and 82% and 81.4%; (compound 3 µM) 51.2% and 34.2% and 52.1%; (compound 9.49 µM) 30.8% and 7.1% and 16.9%. Also, the IC50 (curve of compound) is 3090 nM and 2030 nM and 3150 nM.

Take `[2H]c1nc(C)nc([2H])c1-c1cc(NC[C@@H](C)c2cccc3c(C(=O)NC)ccnc23)ncn1`: the viability, T/C was 94% and 100% and 109% (compound 0.0316 µM); 99.8% and 100% and 112% (compound 0.1 µM); 91.7% and 123% (compound 0.316 µM); 88.7% and 104% and 94.6% (compound 1 µM); 71.9% and 105% and 111% (compound 3.16 µM); 99.7% and 92.6% and 95.8% (compound 10 µM). Besides, the result (compound 0.316 µM) was inactive. For the same compound, the IC50 (curve of compound) was over 10000 nM.
